Source: ChEMBL document CHEMBL5052845 (2021)

Key:
Format in all cases: ADME, Microsome
[1] = Half-life in human liver microsomes at 1 uM incubated for 60 mins followed by NADPH generating system addition and measured by LC-MS/MS analysis
[2] = Clearance in human liver microsomes at 1 uM incubated for 60 mins followed by NADPH generating system addition and measured by LC-MS/MS analysis; details: read-out: CLH
[3] = Half-life in mouse liver microsomes at 1 uM incubated for 60 mins followed by NADPH generating system addition and measured by LC-MS/MS analysis
[4] = Clearance in mouse liver microsomes at 1 uM incubated for 60 mins followed by NADPH generating system addition and measured by LC-MS/MS analysis; details: read-out: CLH
[5] = Metabolic stability in mouse liver microsomes at 1 uM assessed as compound remaining incubated for 60 mins followed by NADPH generating system addition and measured by LC-MS/MS analysis; details: read-out: Stability

half-life at 1 µM [1] [h]	microsomal CLint at 1 µM [2] [µL/min/mg]	half-life at 1 µM [3] [h]	microsomal CLint at 1 µM [4] [µL/min/mg]	remaining at 1 h, 1 µM [5] [%]	SMILES
1.51	15.3	1.9	12.1		CCC[C@H]1C[C@@H](NC(=O)c2ccc(C(F)(F)F)[nH]c2=O)c2cc(C)ccc2N1
				105	Cc1ccc2c(c1)[C@H](O)CC[C@H]2NC(=O)c1ccc(C(F)(F)F)[nH]c1=O
1.37	17	1.2	19.2		CCC[C@@H]1C[C@@H](NC(=O)c2ccc(C(F)(F)F)[nH]c2=O)c2cc(C)ccc2N1
0.652	35.4	0.56	41.2		CCC[C@H]1Oc2ccc(C)cc2[C@@H]1NC(=O)c1ccc(C(F)(F)F)[nH]c1=O
